From patent US9474788B2, “Methods for the reactivation of latent HIV using cytosine methylation inhibitors and NF-KB activators” (priority 2010, dated 2016)
Where two headings read alike, the source gives them in different places.

Assays:
Type in all cases: cell-based
latent HIV-1 [1] = tested on: latent HIV-1
Experimental: (§1) Jurkat and J-Lat cells were cultured in RPMI (Invitrogen) with 5% FBS (Gemini Bio-Products) and 5% Fetalplex (Gemini Bio-Products). For analysis of virus reactivation by flow cytometry, aza-CdR (Sigma) and TNF-α (Biosource) treatments were for 24 h, after which medium was replaced. Reactivation was assayed after an additional 48 h. For chromatin immunoprecipitation (ChIP) and bisulfite-mediated methylcytosine mapping, cells were treated for 30 h with aza-CdR. For cycloheximide experiments, cells were treated for 24 hours, either with or without 40 ng/ml cycloheximide.
J-Lat cells were transfected by electroporation using Kit R and program O-28 (Amaxa Biosystems). HIV-1 reactivation was assayed by flow cytometry four days post-transfection. […] Supernatant was harvested 48 h post-transfection and frozen at −80° C. in aliquots. Aliquots were thawed, diluted 1:160, and used to infect Jurkat T cells overnight at a multiplicity of 0.1 infectious units per cell with 2 ml supernatant per 1 million cells. Three days post-infection, GFP-negative and -positive cell populations were isolated by fluorescence-activated cell sorting (FACS). […] Cells were cotransfected with a plasmid encoding the tomato fluorescent protein and either methylated or unmethylated pEGFP-N1, and the tomato-positive population was analyzed for GFP expression. For measurement of J-Lat activation, cells were infected with undiluted virus and analyzed by flow cytometry 2 days post-infection.
Cell fluorescence was measured with the fluorescence activated cell sorter FACSCalibur or LSRII (BD Biosciences). Cell sorting was performed with the fluorescence activated cell sorting (FACS) Vantage DiVa (BD Biosciences). To phenotype CD4^+ T cells, the cells were stained with the following monoclonal antibodies (mAbs): phycoerythrin-conjugated (PE)—anti-CD4, TC—anti-CD45RA, or PE—anti-CXCR4 (Caltag). Flow cytometry and sorting data were analyzed with FlowJo software (Treestar) or Cellquest (BD Biosciences), in the case of primary cells. Analysis was restricted to the live population, as defined by the forward versus side scatter profile. Flowjo transforms fluorescence plots to a linear scale at the origin, permitting intelligible display of cells with low fluorescence.

latent HIV-1 [2] = experiment: Latent HIV-1 reactivation in a polyclonal population of latently infected Jurkat T cells, GFP by flow cytometry; conditions: about two months after infection
Experimental: as §1
J-Lat cells were transfected by electroporation using Kit R and program O-28 (Amaxa Biosystems). […] Three days post-infection, GFP-negative and -positive cell populations were isolated by fluorescence-activated cell sorting (FACS). […] Cells were cotransfected with a plasmid encoding the tomato fluorescent protein and either methylated or unmethylated pEGFP-N1, and the tomato-positive population was analyzed for GFP expression. For measurement of J-Lat activation, cells were infected with undiluted virus and analyzed by flow cytometry 2 days post-infection.
Cell fluorescence was measured with the fluorescence activated cell sorter FACSCalibur or LSRII (BD Biosciences). Cell sorting was performed with the fluorescence activated cell sorting (FACS) Vantage DiVa (BD Biosciences). […]

HIV-1 CpG islands = experiment: Bisulfite-mediated methylcytosine mapping of HIV-1 in J-Lat 6.3; conditions: depending on the CpG analyzed, 30 h treatment
Experimental: as §1
Sodium bisulfite treatment was performed according to the Pikaard protocol (on the internet at http://followed by www(dot)biology(dot)wustl(dot)edu/pikaard/PDFs and protocol files/bisulfite sequencing(dot)pdf) with minor modifications. Jurkat T cell DNA was digested overnight with Pst I and purified with the Qiaquick PCR Purification Kit (Qiagen). Bisulfite-treated DNA was amplified in nested PCR reactions with the following reaction conditions: denature (95° C., 5 minutes), cycle 35 times (95° C., 30 seconds then 60° C., 60 seconds), and extend (60° C., 7 minutes). […] Nucleotide sequence was determined of at least nine cloned inserts using the universal M13 reverse primer. The efficiency of sodium bisulfite conversion was calculated using the Quantification Tool for Methylation Analysis (QUMA) software.

HIV-1 CpG island 2 = experiment: Chromatin immunoprecipitation of factor recruitment to the HIV-1 provirus in J-Lat 6.3
Experimental: as §1
ChIP was performed as described previously with modifications. J-Lat 6.3 cells Cells were diluted to 5×10^5 per ml, lysed, and sonicated (Model 500 Ultrasonic Dismembranator, Fisher Scientific). Lysates were incubated overnight with 5 μg of antibody against MBD2 (Upstate Cell Signaling Solutions cat. 07-198), HDAC2 (Santa Cruz Biotechnology cat. sc-7899) or Sp1 (Santa Cruz Biotechnology cat. sc-59). Immune complexes were recovered by incubation for 1 h with protein A agarose beads (Invitrogen). Immunoprecipitated DNA was quantified by quantitative PCR using the 7900HT Sequence Detection System (Applied Biosystems) and 2× Hot Sybr real time PCR kit (Molecular Cloning Laboratories). Negative control DNA was assayed using 5USBACT and 3USBACT as primers, CpG island 1 was assayed using oSK92 (5′-[…]-3′) (SEQ ID NO:23) and oSK93 (5′-[…]-3′) (SEQ ID NO:24) as primers, and CpG island 2 was assayed using oSK89 (5′-[…]-3′) (SEQ ID NO:25) and oSK90 (5′-[…]-3′) (SEQ ID NO:26) as primers. SDS 2.3 software (Applied Biosystems) was used to analyze precipitated DNA relative to input and to confirm the specificity of each PCR reaction by melting curve analysis.

HIV-1 transcription = experiment: Reverse transcription and quantitative PCR of HIV-1 mRNA in J-Lat cells; conditions: 24 hours, 40 ng/ml cycloheximide
Experimental: as §1
J-Lat cells were transfected with short interfering RNAs (siRNAs) corresponding to the MBD2 mRNA or non-targeting control short interfering RNAs (siRNAs) (siGENOME SMARTpool or siCONTROL pool, Dharmacon) by electroporation using Kit R and program O-28 (Amaxa Biosystems). […] Quantitative PCR was performed with the 7900HT Sequence Detection System (Applied Biosystems) and the 2× Hot Sybr real time PCR kit (Molecular Cloning Laboratories), with each PCR reaction receiving 1/20 of the reverse transcription. […] SDS 2.3 software (Applied Biosystems) was used to quantify each cDNA relative to cyclophilin A and to confirm the specificity of each PCR reaction by melting curve analysis.

Molecule | Reactivation of latent HIV-1, MFI, fold greater than PBS control (latent HIV-1 [1]; J-Lat cell line 6.3) | Reactivation of latent HIV-1, MFI, fold greater than PBS control (latent HIV-1 [1]; J-Lat cell line 8.4) | Reactivation of latent HIV-1, MFI, fold greater than PBS control (latent HIV-1 [1]; J-Lat cell line 9.2) | Reactivation of latent HIV-1, MFI, fold greater than PBS control (latent HIV-1 [1]; J-Lat cell line 15.4) | Effect on HIV-1 gene expression (mean fluorescence intensity or proportion of GFP-positive cells) (latent HIV-1 [1]; J-Lat lines 6.3, 8.4, 9.2 and 15.4) | Proportion of cells with active virus, fold greater (latent HIV-1 [2]) | Decrease in methylation (HIV-1 CpG islands) | HDAC2 recruitment to CpG island 2 (HIV-1 CpG island 2) | MBD2 recruitment to CpG island 2 (HIV-1 CpG island 2) | Sp1 recruitment to CpG island 2 (HIV-1 CpG island 2) | HIV-1 transcription in the presence of cycloheximide (HIV-1 transcription) | GFP expression after treatment of J-Lat cells with TNF-α (latent HIV-1 [1]; 40 ng/ml cycloheximide) | Reactivation of latent virus (latent HIV-1 [1]; J-Lat A2 (HIV-derived vector encoding only viral promoter and Tat))
Nc1ncn([C@H]2C[C@H](O)[C@@H](CO)O2)c(=O)n1 [Aza-CdR, 5-aza-2′ deoxycytidine] | 1.8 fold | 1.6 fold | 1.1 fold | 1 fold | little effect | two-fold greater proportion of cells with active virus | ≤ 50% | lost | eliminated | increased Sp1 recruitment | still induced HIV-1 transcription |  | 
C[C@@H]1C[C@@H]([C@H](O)CC2CC(=O)NC(=O)C2)C(=O)[C@@H](C)C1 [Cycloheximide, cycloheximide] |  |  |  |  |  |  |  |  |  |  |  | inhibition of GFP expression | 
TNF-a | 7.1 fold | 2.5 fold | 2.3 fold | 1.7 fold |  | 1.5 fold |  |  |  |  |  |  | reactivated the majority of latent virus
